{"source": "ChEMBL document CHEMBL4052739", "about": "“Discovery of a biarylamide series of potent, state-dependent NaV1.7 inhibitors” (Bioorg Med Chem Lett, 2017)", "key": {"[1]": {"experiment": "Aqueous solubility of compound in PBS buffer", "type": "physicochemical"}, "[2]": {"experiment": "Volume of distribution at steady state in rat at 0.5 mg/kg, iv by LC-MS/MS analysis", "type": "ADME, organism-based", "settings": "in vivo, read-out: Vdss"}, "[3]": {"experiment": "Oral bioavailability in rat at 10 mg/kg administered via gavage by LC-MS/MS analysis", "type": "ADME, organism-based", "settings": "in vivo"}, "[4]": {"experiment": "Oral bioavailability in rat at 30 mg/kg administered via gavage by LC-MS/MS analysis", "type": "ADME, organism-based", "settings": "in vivo"}, "P-gp": {"system": "P-gp", "experiment": "Apparent permeability in MDCK cells harboring Pgp", "type": "ADME, cell-based, Canis lupus familiaris", "settings": "dog, MDCK-MDR1"}, "Plasma [5]": {"system": "Plasma", "experiment": "Drug uptake in plasma of formalin-induced nociception Sprague-Dawley rat model at 100 mg/kg, po", "type": "ADME, organism-based", "settings": "in vivo"}, "Plasma [6]": {"system": "Plasma", "experiment": "Drug uptake in plasma of Sprague-Dawley rat at 300 mg/kg, po", "type": "ADME, organism-based", "settings": "in vivo"}, "Plasma [7]": {"system": "Plasma", "experiment": "Unbound drug uptake in plasma of formalin-induced nociception Sprague-Dawley rat model at 30 mg/kg, po", "type": "ADME, organism-based", "settings": "in vivo"}, "Plasma [8]": {"system": "Plasma", "experiment": "Drug uptake in plasma of Sprague-Dawley rat at 100 mg/kg, po", "type": "ADME, organism-based", "settings": "in vivo"}, "Plasma [9]": {"system": "Plasma", "experiment": "Unbound drug uptake in plasma of Sprague-Dawley rat at 30 mg/kg, po", "type": "ADME, organism-based", "settings": "in vivo"}, "Plasma [10]": {"system": "Plasma", "experiment": "Drug uptake in plasma of formalin-induced nociception Sprague-Dawley rat model at 30 mg/kg, po", "type": "ADME, organism-based", "settings": "in vivo"}, "[11]": {"experiment": "Oral bioavailability in rat at 100 mg/kg administered via gavage by LC-MS/MS analysis", "type": "ADME, organism-based", "settings": "in vivo"}, "Plasma [12]": {"system": "Plasma", "experiment": "Unbound drug uptake in plasma of Sprague-Dawley rat at 300 mg/kg, po", "type": "ADME, organism-based", "settings": "in vivo"}, "Plasma [13]": {"system": "Plasma", "experiment": "Drug uptake in Sprague-Dawley rat plasma at 30 mg/kg, po", "type": "ADME, organism-based", "settings": "in vivo"}, "Plasma [14]": {"system": "Plasma", "experiment": "Unbound drug uptake in plasma of Sprague-Dawley rat at 100 mg/kg, po", "type": "ADME, organism-based", "settings": "in vivo"}, "[15]": {"experiment": "Ratio of drug uptake in brain to plasma of formalin-induced nociception Sprague-Dawley rat model at 100 mg/kg, po", "type": "ADME, organism-based", "settings": "read-out: BPR"}, "Plasma [16]": {"system": "Plasma", "experiment": "Unbound drug uptake in plasma of formalin-induced nociception Sprague-Dawley rat model at 100 mg/kg, po", "type": "ADME, organism-based", "settings": "in vivo"}, "[17]": {"experiment": "Oral bioavailability in rat at 40 mg/kg administered via gavage by LC-MS/MS analysis", "type": "ADME, organism-based", "settings": "in vivo"}}}
{"smiles": "O=C(Nc1cccc(C(F)(F)F)c1-c1cccnc1)c1cccc(-c2ncccc2Cl)c1", "values": [{"measurement": "solubility", "setting": "[1]", "value": 10, "unit": "µM"}, {"measurement": "Vd", "setting": "[2]", "value": 1.27, "unit": "L/kg"}, {"measurement": "bioavailability", "setting": "[3]", "value": 58, "unit": "%"}]}
{"smiles": "O=C(Nc1cccc(C(F)(F)F)c1-c1cccnc1)c1cccc(-c2ncccc2OC(F)F)c1", "values": [{"measurement": "bioavailability", "setting": "[4]", "value": 92, "unit": "%"}, {"measurement": "Papp", "setting": "P-gp", "value": 31, "unit": "×10⁻⁶ cm/s"}, {"measurement": "solubility", "setting": "[1]", "value": 56, "unit": "µM"}, {"measurement": "Vd", "setting": "[2]", "value": 3, "unit": "L/kg"}]}
{"smiles": "O=C(Nc1cccc(C(F)(F)F)c1-c1cccnc1)c1cccc(-c2ccccn2)c1", "values": [{"measurement": "solubility", "setting": "[1]", "value": 12, "unit": "µM"}, {"measurement": "Vd", "setting": "[2]", "value": 1.4, "unit": "L/kg"}, {"measurement": "bioavailability", "setting": "[3]", "value": 54, "unit": "%"}]}
{"smiles": "O=C(COc1cccc2cccnc12)Nc1ccccc1N1CCOCC1", "values": [{"measurement": "Papp", "setting": "P-gp", "value": 37, "unit": "×10⁻⁶ cm/s"}]}
{"smiles": "Nc1cccnc1-c1cccc(C(=O)Nc2cccc(C(F)(F)F)c2-c2cccnc2)c1", "values": [{"measurement": "concentration", "setting": "Plasma [5]", "value": 1570, "unit": "nM"}, {"measurement": "concentration", "setting": "Plasma [6]", "value": 3990, "unit": "nM"}, {"measurement": "Cp(f)", "setting": "Plasma [7]", "value": 61, "unit": "nM"}, {"measurement": "concentration", "setting": "Plasma [8]", "value": 1800, "unit": "nM"}, {"measurement": "Cp(f)", "setting": "Plasma [9]", "value": 98, "unit": "nM"}, {"measurement": "concentration", "setting": "Plasma [10]", "value": 342, "unit": "nM"}, {"measurement": "solubility", "setting": "[1]", "value": 470, "unit": "µM"}, {"measurement": "bioavailability", "setting": "[11]", "value": 73, "unit": "%"}, {"measurement": "Cp(f)", "setting": "Plasma [12]", "value": 714, "unit": "nM"}, {"measurement": "concentration", "setting": "Plasma [13]", "value": 549, "unit": "nM"}, {"measurement": "Cp(f)", "setting": "Plasma [14]", "value": 322, "unit": "nM"}, {"measurement": "Vd", "setting": "[2]", "value": 1.29, "unit": "L/kg"}, {"measurement": "Kp", "setting": "[15]", "value": 0.36}, {"measurement": "Cp(f)", "setting": "Plasma [16]", "value": 281, "unit": "nM"}]}
{"smiles": "O=C(Nc1cccc(C(F)(F)F)c1-c1cccnc1)c1cccc(-c2ncccc2C(F)(F)F)c1", "values": [{"measurement": "bioavailability", "setting": "[17]", "value": 26, "unit": "%"}, {"measurement": "solubility", "setting": "[1]", "value": 22, "unit": "µM"}, {"measurement": "Vd", "setting": "[2]", "value": 0.57, "unit": "L/kg"}]}
